Experimental data from article PMC11384084 (Journal of Traditional and Complementary Medicine, 2024).
Entries after “also recorded” stand apart in the source; their conditions may differ. Like-named read-outs stand apart in the source and are kept apart here.

Experiments:
[1] = Peak plasma levels (Cmax) of compounds and metabolites on day 14 by UHPLC-MS/MS; type: in vivo, human; details: for Cmax: male, human, plasma, 2 weeks, read-out: UA plasma level, median (Cmax day 14)
Experimental: The compounds and their metabolites were measured using a UHPLC-MS/MS system on a Hybrid quadrupole-Orbitrap mass spectrometer (Q Exactive, Thermo Scientific, Waltham, MA, USA) hyphenated with a Thermo Scientific Vanquish Flex ultrahigh-pressure liquid chromatography (UHPLC) system via an electrospray ionization source. For the parallel reaction monitoring (PRM) scan, the resolution, automatic gain control (AGC) target, and maximum injection time (IT) were set at 17500, 2e5, and 100 ms, respectively. The NCE values for each metabolite were individually set, and the details are provided in Supplemental Table 1. The All-Ion Fragmentation (AIF) scan consisted of a scan range of m/z 100–750 with an NCE of 10. The resolution, AGC target, and maximum IT for the AIF scan were set at […], and 200 ms, respectively. More details regarding the preparation and calibration are provided in the Supplementary Methods section.

healthy men [2] = experiment: Phase 1 clinical trial safety evaluation, adverse events by CTCAE v4.03; type: in vivo, human; details: for Relationship To Study Treatment / Toxicity Grade (CTCAE v4.0): per event; for Relationship To Study Treatment / Toxicity Grade (CTCAE v4.0) / Event (adverse event term): 2 weeks oral; for Toxicity Grade (CTCAE v4.0) / Adverse Event (Yes/No) / Event (adverse event term): UA 300 mg/day, CURC 1200 mg/day; for Adverse Event (Yes/No) / Event (adverse event term): per subject; for Adverse Event (Yes/No): 2 weeks oral lipid capsules
Excerpt: We performed a standard 3 × 3 phase 1 design based on the safety evaluation of UA and CURC tested individually and then in combination (Study Schema in Supplemental Fig. 1). We modified the 3 × 3 design to include any toxicities because we selected the maximum dose due to the reported safety of large doses of these compounds. We enrolled subjects for a 2-week study period and used paired samples for individualized comparisons and pooled results for group comparisons.
We recruited healthy men enrolled in the San Antonio Biomarkers of Risk (SABOR) study, a community-based prostate cancer screening cohort. The San Antonio Biomarkers of Risk (SABOR) study cohort was funded by the 10.13039/100000054National Cancer Institute Early Detection Research Network-sponsored Clinical and Epidemiologic Validation Center since its nascent enrollment in 2000 (IRB# HSC20000030H). A separate IRB was approved for the Phase 1 trial (IRB# HSC20190940H). The participants had no prior diagnosis of prostate cancer at the time of enrollment and had varied prostate cancer risk profiles. We used data from the local UT Health San Antonio Data Safety and Monitoring Board (DSMB).
(§1) Safety was compared to evaluate the number, frequency, duration, and relationship of toxicity events to CURC and UA, as defined by the Common Terminology Criteria for Adverse Events (CTCAE) v. 4.03. The secondary outcomes included the measured plasma levels of UA, CURC, and selected metabolites. We also investigated the impact on the microbiome in a paired analysis for changes and the overall theme of imputed bacterial function.

[3] = Human microsomal metabolism of UA alone or with CURC; type: in vitro ADME; details: UA 4 μM, HLM, NADPH, 37 °C
Experimental: The respective stock solutions were further diluted using MeOH to prepare calibration curve standards and working solutions. The diluent was prepared by spiking the IS (C-d6 and BA) in 100% MeOH to obtain a concentration of 100 ng/mL. The solutions were stored at −20 °C before use. […] Aliquots of 30 μL were collected at different time points, and the reaction was terminated by adding 120 μL of the diluent. Finally, the collected samples were vigorously vortexed, centrifuged for 10 min at 4 °C and 50 μL of the clear supernatant was transferred to LC-MS vials for analysis. UHPLC–MS analysis was performed using a Thermo Scientific Vanquish UHPLC system coupled with an Orbitrap IQ-X Tribrid mass spectrometer with an electrospray ionization (ESI) interface. […] The H-ESI interface was operated in negative ion mode with interface ion transfer tube temperature 320 °C, vaporizing temperature 250 °C, sheath gas 45 Arb, auxiliary gas 10 Arb, sweep gas 2 Arb, and detector voltage 3.5 kV. […] Data processing was performed using the Thermo Scientific Freestyle software (1.8. SP2 version).

healthy men [4] = experiment: Safety laboratory values, baseline vs end of two-week study; type: in vivo, human
Excerpt: as §1, with “4.03.” left out
Demographics between groups were compared using Fisher's exact test for categorical variables and Student's t-test for continuous variables. Laboratory safety values were analyzed using a paired t-test for differences, with significance set at p < 0.05. ANOVA was used to compare the plasma levels of UA, CURC, and CURC metabolites. Least significant difference (LSD) was used as the post-hoc analysis test to compare values between groups.
Laboratory analysis was performed at baseline and at the end of the two-week study. We then subtracted the values (week 2: baseline) to obtain the differences for each participant. […] Chronic kidney disease (CKD) is based on glomerulary filtration rate (GFR), and CKD stage 3 starts at a value below 60. […] Bicarbonate can be harmful if large changes occur in either direction, but clinicians are usually concerned about metabolic acidosis.

[5] = CURC alone group, 1200 mg/day oral, day 14
[6] = combination group (CurcUA), day 14
[7] = Musculoskeletal domain adverse event
[8] = Nervous system domain adverse event
[9] = week 2 minus baseline, n = 6 per group
[10] = adverse event Creatinine increased

Structure (SMILES)	Adverse Event (Yes/No) (healthy men [2])	Difference in ALT, median (IQR) (healthy men [4]; [9])	Difference in AST, median (IQR) (healthy men [4]; [9])	Difference in Albumin, median (IQR) (healthy men [4]; [9])	Difference in Alkaline Phosphatase, median (IQR) (healthy men [4]; [9])	Difference in Bicarbonate, median (IQR) (healthy men [4]; [9])	Difference in Bilirubin, median (IQR) (healthy men [4]; [9])	Difference in Calcium, median (IQR) (healthy men [4]; [9])	Difference in Chloride, median (IQR) (healthy men [4]; [9])	Difference in Creatinine, median (IQR) (healthy men [4]; [9])	Difference in Hematocrit, median (IQR) (healthy men [4]; [9])	Difference in Hemoglobin, median (IQR) (healthy men [4]; [9])	Difference in Platelets, median (IQR) (healthy men [4]; [9])	Difference in Sodium, median (IQR) (healthy men [4]; [9])	Difference in White blood cell (WBC), median (IQR) (healthy men [4]; [9])	also measured
COc1cc(/C=C/C(=O)CC(=O)/C=C/c2ccc(O[C@@H]3O[C@H](C(=O)O)[C@@H](O)[C@H](O)[C@H]3O)c(OC)c2)ccc1O [CURC glucuronide, curcumin glucuronide]	–	–	–	–	–	–	–	–	–	–	–	–	–	–	–	CURC glucuronide plasma level, median [1, 5]: 24.0 ng/mL; CURC glucuronide plasma level, median [1, 6]: 25 ng/mL
C[C@H]1[C@H](C)CC[C@]2(C(=O)O)CC[C@]3(C)C(=CC[C@@H]4[C@@]5(C)CC[C@H](O)C(C)(C)[C@@H]5CC[C@]43C)[C@H]12 [Ursolic Acid, ursolic acid]	No and Yes	1.5 (1.0–12.8)	2.0 (−1.3 to 3.3)	0.0 (−0.1 to 0.2)	2.5 (−2.5 to 5.0)	1.0 (−1.5 to 3.0)	0.0 (−0.08 to 0.15)	0.03 (−0.05 to 0.48)	−1.0 (−2.75 to 1.75)	−0.08 (−0.33 to 0.12)	1.55 (−0.85 to 2.85)	0.20 (−0.33 to 0.58)	9.5 (2.5–27)	0.5 (−1.5 to 2.25)	0.20 (−0.23 to 0.85)	Number of low-grade gastrointestinal (GI)-related complaints attributed (healthy men [2]; CTCAE v4.03, n): 3; Relationship To Study Treatment (healthy men [2]): Unlikely; Toxicity Grade (CTCAE v4.0) (healthy men [2]; [7]): 1; Toxicity Grade (CTCAE v4.0) (healthy men [2]; [8]): 2; Event (adverse event term) (healthy men [2]; [7]): Joint pain; Event (adverse event term) (healthy men [2]; [8]): Vasovagal Reaction; also recorded: Pre-syncope; UA remaining at 40 min ([3]; UA-only incubations): 47%; UA remaining at 40 min ([3]; ratio 1:4 (UA: CURC)): 73%; Cmax ([1]; UA alone group, UA 300 mg/day oral): 2.7 ng/mL; Cmax ([1]; combination group (CurcUA), UA 300 mg/day + CURC 1200 mg/day oral): 43.8 ng/mL; Increase of UA plasma levels, combination vs UA alone ([1]; median 2.7 to 43.8 ng/mL): 16 fold
COc1cc(/C=C/C(=O)CC(=O)/C=C/c2ccc(O)c(OC)c2)ccc1O [Curcumin, curcumin]	No and Yes	−1.0 (−3.25 to 0.0)	2.0 (−2.0 to 3.3)	0.05 (−0.05 to 0.2)	−2.0 (−5.5 to 9.3)	−1.5 (−4.3 to 0.0)	−0.1 (−0.3 to 0.0)	0.2 (−0.15 to 0.32)	−0.5 (−1.3 to 0.8)	0.07 (−0.07 to 0.16)	0.25 (−1.45 to 2.35)	0.20 (−0.30 to 0.55)	7.0 (−5 to 31.5)	0.0 (−1.5 to 1.0)	0.15 (−0.43 to 0.68)	Toxicity Grade (CTCAE v4.0) (healthy men [2]; adverse event Bloating): 2; Toxicity Grade (CTCAE v4.0) (healthy men [2]; [10]): 1; Relationship To Study Treatment (healthy men [2]; [10]): Unlikely; Relationship To Study Treatment (healthy men [2]; adverse event Diarrhea): Possible; Event (adverse event term) (healthy men [2]; adverse event Bloating): Bloating; Event (adverse event term) (healthy men [2]; [10]): Creatinine increased; Event (adverse event term) (healthy men [2]; adverse event Diarrhea): Diarrhea; Event (adverse event term) (healthy men [2]; adverse event Flatulence): Flatulence; CURC parent compound plasma level, median [1, 5]: 0.42 ng/mL; Highest plasma level of CURC [1, 5]: 0.52 ng/mL; CURC plasma level, median [1, 6]: 0.0 ng/mL; GFR after 2 weeks, individual participant (healthy men [4]; baseline GFR 45 (CURC arm participant), 76 (CurcUA participant)): 46; Creatinine after treatment in subject with event 'Creatinine increased' (Comments) (healthy men [4]; individual subjects, baselines 1.10, 1.0, 1.13): Creatine increased from 1.10 to 1.24; also recorded: Creatine increased from 1.0 to 1.21; Difference in Glomerular Filtration Rate (GFR), median (IQR) (healthy men [4]; [9]): −5.5 (−12.0 to 4.5)
